Tests used:
[1] = test system: OTI-1 T cells; assay: Adoptive transfer of pre-treated OTI-1 T cells into Listeria monocytogenes (Lm-OVA) infected mice, FACS of blood and spleen after 35 days; type: in vivo, C57BL/6 mice; conditions: for cell frequency: percentage of transferred cells (CD45.1) from total CD8 positive T cells, compared with control / percentage of MPECs (CD127 positive, KLRG1 negative) from CD8 positive transferred cells / percentage of memory cells (CD27 and CD43 positive) from CD8 positive transferred cells: 35 days of infection; for frequency levels of transferred cells compared with positive control (Phenformin treatment): Phenformin 100 μM pre-treatment
Experimental: The metabolic intervention consisted of cell medium supplementation as described above for the in vitro procedure) using the following agent concentrations, before adoptive transfer of the cells into infected mice.
For the in vivo assessment, the positive control was obtained by pre-treating the OTI-1 CD8 T-cells in vitro with Phenformin (100 μM) following the same procedure as for the other agents). Phenformin is known to induce a metabolic switch in cells essential for the development of long-term T-cells.
C57BL/6 mice were injected intravenously with 2000 CFU of Listeria monocytogenes bacteria expressing OVA at a concentration of 1×10^4 CFU/mL (Lm-OVA; harvested in Brain Heart Infusion media without antibiotics until OD reached 0.3) in 200 μL of PBS to induce a Listeria monocytogenes infection.
Treated OTI-1 T-cells (specific for OVA recognition) were provided from day 7 of the procedure described above in Example 1 at a concentration of 1×10^5 cells/mL in PBS. Residues were cleaned from the T cells using Lympholyte M as described above.
Adoptive transfer of OTI-1 T cells was carried out by intravenously injecting each mouse with 1×10^4 cells in 200 μL of PBS.
After 35 days, the mice were sacrificed to collect blood and spleens for further surface and intracellular FACs analysis.
Harvested blood or total spleen cells were subjected to red blood cell lysis in a 96-well plate and then centrifuged (2000 rpm, 2 min at 4° C.) before washing with 150 μL of PBS.
(§1) The cells were then resuspended in 60 μL of LiveDead dye solution (1:500 dilution in PBS) and incubated for 15 min on ice. Cells were then centrifuged (2000 rpm, 2 min at 4° C.) before washing with 150 μL of PBS and then 200 μL of FACS buffer (PBS+2% FBS).
Subsequently, the cells were resuspended in 60 μL of stain solution (FACS buffer+antibodies specific for CD45.1, CD62L, CD8, CD127, KLRG1, CD27, CD43 and CXCR3), and incubated for 15 min on ice.
(§2) Cells were then centrifuged (2000 rpm, 2 min at 4° C.) before washing with 150 μL of FACS buffer, and then resuspended in 150 μL of FACS buffer before analysis by FACS (BD™ LSR II).
After acquisition, FACS data were analysed using the FlowJo treestar software and percentages of gated cells for targeted markers were extracted. […]
The cells were the centrifuged (2000 rpm, 2 min at 4° C.) and washed with 150 μL of 1× Permeabilization buffer (Intracellular staining kit (BD™)), and then centrifuged (2000 rpm, 2 min at 4° C.) and washed with 200 μL of FACS buffer. 200 μL of FACS buffer was then added and the mixture stored at 4° C. till analysis by FACS (BD™ LSR II) either the same or following day.
After acquisition, data were analysed using the FlowJo treestar software and percentages of gated cells for the targeted markers were extracted.
To study the enhancement of T cell immune fitness the in vivo studies focused on the development of T cells with long term and resting phenotypes after treatment and adoptive transfer into mice simultaneously infected with Listeria monocytogenes. The metabolic intervention outcomes were evaluated after 35 days of infection using: • Cell frequency: assessment by FACS of the percentage of transferred cells (CD45.1) from total CD8 positive T cells in the mice blood and spleen. • Cell phenotype: assessment by FACS of the percentage of cells from the blood and spleen that developed memory patterns from total CD8 positive transferred cells (CD45.1): either memory precursor effector cells (MPECs; both positive for CD127 and negative for KLRG1 markers) or full memory cells (positive for both CD27 and CD43 markers). • Cell function: assessment by FACS of the percentage of transferred cells (CD45.1) from total CD8 positive T cells in the mice spleen expressing the functional surface marker CXCR3 and able to produce both IFNγ and TNFα cytokines by intracellular staining.

[2] = test system: OTI-1 CD8+ T-cells; assay: CD62L surface expression by FACS on in vitro stimulated CD8+ T cells; type: cell-based, mouse; conditions: FACS median fluorescence, day 7; negative control = effector T cells expanded with IL-2/7; concentrations as in the 1st table/the 2nd table
Experimental: (§3) Unless specified otherwise, cell media were supplemented with agents or combinations of agents at the following concentrations:
An OTI-1 mouse was sacrifice and dissected to extract the spleen. Under sterile conditions, the spleen was disrupted over a […] filter. PBS was then added to the disrupted spleen to a volume of 30 mL, and the mixture was centrifuged (1500 rpm, 5 min at room temperature).
The PBS supernatant was discarded and the cells resuspended in 2 mL of 1× red blood cell lysis buffer for 3 min. 15 mL of PBS was then added to wash the cells, and the mixture was centrifuged (1500 rpm, 5 min at room temperature).
The PBS supernatant was discarded and the cells resuspended in fresh RPMI completed media (+10% FBS, Sodium Pyruvate) before counting.
(§4) 750 μL of agent/agent combination supplementation solutions (described above) were added to corresponding wells of a flat bottom 24-well plate.
(§5) The total splenic cells were then resuspended in RPMI completed media (+10% FBS, Sodium Pyruvate), including IL-2 (final concentration 100 U/mL) and SIINFEKL peptide (final concentration 250 nM) at 1.6×10^6 cells/mL.
750 μL of cell solution (2×) were added to each well. Thus, the cell count was 1200000 cells per well at 0.8×10^6 cells/mL.
The cells were then incubated at 37° C. for 3 days.
The specific activation of OTI-1 T-cells is due to the SIINFEKL peptide. Therefore after 3 days, mostly (if not only) CD8 T-cells will have proliferated and show an activation profile.
(§6) The cells from each condition (after day 3) were counted and resuspended in RPMI completed media (+10% FBS, Sodium Pyruvate) at 1.2×10^6 cells/mL.
(§7) The cells were then distributed in 96-well or 12-well plates at 5×10^4 cells/well (96-well plate) and 6×10^6 cells/well (12-well plate).
(§8) Agent/agent combination supplementation solutions (described above) or complete media were added to corresponding wells in addition to either: (a) IL-2 (at a final concentration of 100 U/mL) and IL-7 (at a final concentration of 10 U/mL) (to keep the effector phenotype); or (b) IL-15 (at a final concentration of 10 U/mL) (to induce differentiation into memory precursor effector cells (MPECs) as a positive control.
Extra media was added at day 5 to the wells with fresh agents and cytokines.
(§9) The cells were then incubated at 37° C. for 4 days before proceeding with FACS staining or Seahorse analysis.
Cells were harvest from the 96-well plates and centrifuged (2000 rpm, 2 min at 4° C.) before washing with 150 μL of PBS.
as §1
Subsequently, the cells were resuspended in 60 μL of stain solution (FACS buffer+antibodies specific for CD45.1, CD62L and CD8), and incubated for 15 min on ice.
as §2
After acquisition, FACS data were analysed using the FlowJo treestar software and median fluorescence for CD62L was extracted.
(§10) To study the enhancement of T cell immune fitness the in vitro studies focused on the development of T cells with long term and resting phenotypes, which could be equated to the development of memory cell characteristics. The metabolic intervention outcomes were evaluated using: • Cell phenotype: assessment by FACS of the cell surface expression of the specific marker CD62L, which is higher on resting T-cells. • Cell function: assessment using metabolic potential measurement (as per the Spare Respiratory Capacity) by means of an assay assessing cell respiration upon mitochondrial stress (Seahorse technology), which is higher in memory, quiescent cells.

[3] = test system: OTI-1 CD8+ T-cells; assay: Seahorse mitochondrial stress analysis, spare respiratory capacity (metabolic potential); type: cell-based, mouse; conditions: day 7, negative control = effector T cells expanded with IL-2/7, concentrations as in the 1st table/the 2nd table
Experimental: as §3, §4, §5, §6, §7, §8, §9
Cells were harvested from 12-well or 6-well plates.
A probe plate containing cartridge pores (Seahorse XFe96 FluxPak) was prepared by adding 200 μL of Seahorse XF Calibrant solution (Agilent) to each well and incubating overnight at 37° C. (no CO2).
Residues were removed by transferring the cells to a 15 mL tube and a Pasteur pipette was added. 2 mL of Lympholyte M was slowly added to the Pasteur pipette, and the Ficoll was allowed to slowly release below the cells before the pipette was removed from the tube. The tube was the centrifuged at 1500 rpm, 10 min at room temperature without braking.
5 mL of fresh uncompleted RPMI was added to the cells, and the mixture was centrifuged at 1500 rpm, 5 min at room temperature. The cells were then resuspended in 1 mL of RPMI completed media (+10% FBS, Sodium Pyruvate).
Subsequently, the cells were counted before being resuspended at 5×10^6 cells/mL in completed XF Medium (non-buffered RPMI, with glucose (25 mM), L-glutamine (2 mM) and sodium pyruvate (1 mM), pH 7.3).
40 μL of cells were then distributed in corresponding pre-determined Poly-D-Lysine coated wells of a cell culture plate (V3-PS TC-Treated) and the plate was centrifuged at 400 g, 5 min.
140 μL of XF Medium was carefully added to each well, and the plate was incubated at 37° C., 30-60 min (no CO2). During this time modulator solutions (Oligomycin 10 μM; FCCP 15 μM; Rotenone/Antimycin A 1 μM/1 μg/mL) were loaded into the previously prepared cartridge pores: 20 μL of Oligomycin in pore A; 22 μL of FCCP in pore B; and 24 μL of Rotenone/Antimycin A in pore C) and the cartridge was incubated at 37° C. (no CO2).
Mitochondrial stress analysis was then carried out using the Wave software following the manufacturer instructions.
After data acquisition, oxygen consumption rates were extracted and spare respiratory capacity calculated following the manufacturer's instructions.
as §10

Molecule	cell frequency: percentage of transferred cells (CD45.1) from total CD8 positive T cells, compared with control ([1]; blood)	percentage of MPECs (CD127 positive, KLRG1 negative) from CD8 positive transferred cells ([1]; blood)	percentage of memory cells (CD27 and CD43 positive) from CD8 positive transferred cells ([1]; blood)	frequency levels of transferred cells compared with positive control (Phenformin treatment) ([1]; blood)	cell frequency: percentage of transferred cells (CD45.1) from total CD8 positive T cells, compared with control ([1]; spleen)	percentage of MPECs (CD127 positive, KLRG1 negative) from CD8 positive transferred cells ([1]; spleen)	percentage of memory cells (CD27 and CD43 positive) from CD8 positive transferred cells ([1]; spleen)	frequency levels of transferred cells compared with positive control (Phenformin treatment) ([1]; spleen)	CD62L surface expression level compared with negative control [2]	metabolic potential (spare respiratory capacity) compared with negative control [3]
NC(=O)c1ccc[n+]([C@@H]2O[C@H](CO)[C@@H](O)[C@H]2O)c1 [NR, Nicotinamide riboside]	higher	higher	higher	higher	higher	higher	higher	similar	higher	higher
NC(=O)C[C@H](N)C(=O)O [Asn, Asparagine]									higher	higher
N=C(N)NCCC[C@H](N)C(=O)O [Arg, Arginine]	higher				higher		higher		higher	higher
O=c1oc2cc(O)ccc2c2ccc(O)cc12 [UroA, urolithin A (3,8-dihydroxyurolithin)]									higher	higher
NCC(=O)O [Gly, Glycine]									higher	higher
Vitamin B12	higher		higher	higher	higher	higher	higher	higher	higher	higher
N[C@@H](CO)C(=O)O [Ser, Serine]									higher	higher
[Cl][Mn][Cl] [Mn, MnCl2]									higher	higher
